Source: ChEMBL document CHEMBL4219266, “Identification of quinone analogues as potential inhibitors of picornavirus 3C protease in vitro” (Bioorg Med Chem Lett, 2018)
pIC50: −log10 of the molar value. Active and inactive are the calls of the source. The rule behind the calls is not given here.

target: Genome polyprotein (rhinovirus B14, UniProt P03303); assay: Inhibition of recombinant human rhinovirus protease 3C using fluorogenic-Dabcyl-KTSAVLQSGFRKME-Edan as substrate after 5 mins by FRET assay; set-up: species or system Human rhinovirus sp.; conditions: not given
Sequence (P03303 1538-1719 limits assumed): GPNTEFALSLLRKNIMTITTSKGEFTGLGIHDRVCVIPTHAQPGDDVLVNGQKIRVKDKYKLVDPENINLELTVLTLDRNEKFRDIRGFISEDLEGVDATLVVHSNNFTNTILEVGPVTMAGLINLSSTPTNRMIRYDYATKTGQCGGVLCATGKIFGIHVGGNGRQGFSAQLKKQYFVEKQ

Structure (SMILES) | pIC50
COc1ccc(OC2=C(Cl)C(=O)c3ccccc3C2=O)c([N+](=O)[O-])c1 | 6.07
Cc1nc2c([nH]1)C(=O)C(Cl)=C(Nc1cc(F)cc(F)c1)C2=O | 5.08

target: Genome polyprotein (Coxsackievirus B3 (strain Nancy), UniProt P03313); assay: Inhibition of human coxsackievirus B3 protease 3C expressed in Escherichia coli (BL21) using fluorogenic-Dabcyl-KEALFQGPPQFE-Edans as substrate after 1 hr by FRET assay; conditions: not given
Sequence (P03313 1541-1723 limits assumed): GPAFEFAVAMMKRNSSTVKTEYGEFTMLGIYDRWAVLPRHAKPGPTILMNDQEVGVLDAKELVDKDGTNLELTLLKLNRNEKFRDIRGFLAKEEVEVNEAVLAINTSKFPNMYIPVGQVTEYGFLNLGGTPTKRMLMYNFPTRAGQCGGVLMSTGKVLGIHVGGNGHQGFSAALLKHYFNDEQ

Structure (SMILES) | pIC50
COC(=O)/C=C/C(=O)[C@@H](NC(=O)OC(C)(C)C)C(C)C | 5.74
O=C(CCN1CCc2ccccc2CC1)c1ccc2c(c1)OCCO2 | 4.95
Cc1ccc(N/N=C/c2c(O)cc(C)oc2=O)cc1 | 5.27
O=C1C(Sc2ccccc2)=C(Sc2ccccc2)C(=O)c2[nH]c(-c3ccncc3)nc21 | 6.10
Cc1ccc(NC2=C(Cl)C(=O)c3nc(C)[nH]c3C2=O)cc1 | 6.08
CC1(C)CC(=O)C2=C(C1)OC(=O)C2(Nc1ccccc1)C(F)(F)F (centres undefined) | 5.08
Cc1nc2c([nH]1)C(=O)C(Nc1ccc(C(F)(F)F)cc1)=C(Cl)C2=O | 6.08
O=C1C(Sc2ccc(Cl)cc2)=C(Sc2ccc(Cl)cc2)C(=O)c2[nH]c(-c3ccncc3)nc21 | 6.24
COc1ccc(OC2=C(Cl)C(=O)c3ccccc3C2=O)c([N+](=O)[O-])c1 | 5.77
Cc1[nH]c2ccccc2c1C1=C(O)C(=O)c2ncccc2C1=O | 5.96
O=C1C(Cl)=C(Nc2cccc(Cl)c2)C(=O)c2[nH]c(-c3ccncc3)nc21 | 6.26
O=C1C(Oc2ccc(O)cc2)=C(Oc2ccc(O)cc2)C(=O)c2ncccc21 | 5.92
O=C1C=CC(=O)N1c1ccc(OC(F)(F)C(F)F)c(N2C(=O)C=CC2=O)c1 | 5.92
CN(Cc1ccccc1)CC(C(=O)c1ccc(Cl)cc1)n1cnc2ccccc2c1=O (centres undefined) | 5.21
O=C1C(Cl)=C(Cl)C(=O)c2ncccc21 | 6.20
Cc1nc2c([nH]1)C(=O)C(Cl)=C(Nc1cc(F)cc(F)c1)C2=O | 6.05
Cc1[nH]c2ccccc2c1C1=C(Cl)C(=O)c2ncccc2C1=O | 6.14

target: Genome polyprotein (rhinovirus B14) (UniProt P03303); assay: Inhibition of human rhinovirus protease 3C catalytic activity assessed as suppression of target protein cleavage at 50 uM after 30 mins by SDS-PAGE analysis; conditions: Human rhinovirus sp.
Sequence (P03303 whole entry): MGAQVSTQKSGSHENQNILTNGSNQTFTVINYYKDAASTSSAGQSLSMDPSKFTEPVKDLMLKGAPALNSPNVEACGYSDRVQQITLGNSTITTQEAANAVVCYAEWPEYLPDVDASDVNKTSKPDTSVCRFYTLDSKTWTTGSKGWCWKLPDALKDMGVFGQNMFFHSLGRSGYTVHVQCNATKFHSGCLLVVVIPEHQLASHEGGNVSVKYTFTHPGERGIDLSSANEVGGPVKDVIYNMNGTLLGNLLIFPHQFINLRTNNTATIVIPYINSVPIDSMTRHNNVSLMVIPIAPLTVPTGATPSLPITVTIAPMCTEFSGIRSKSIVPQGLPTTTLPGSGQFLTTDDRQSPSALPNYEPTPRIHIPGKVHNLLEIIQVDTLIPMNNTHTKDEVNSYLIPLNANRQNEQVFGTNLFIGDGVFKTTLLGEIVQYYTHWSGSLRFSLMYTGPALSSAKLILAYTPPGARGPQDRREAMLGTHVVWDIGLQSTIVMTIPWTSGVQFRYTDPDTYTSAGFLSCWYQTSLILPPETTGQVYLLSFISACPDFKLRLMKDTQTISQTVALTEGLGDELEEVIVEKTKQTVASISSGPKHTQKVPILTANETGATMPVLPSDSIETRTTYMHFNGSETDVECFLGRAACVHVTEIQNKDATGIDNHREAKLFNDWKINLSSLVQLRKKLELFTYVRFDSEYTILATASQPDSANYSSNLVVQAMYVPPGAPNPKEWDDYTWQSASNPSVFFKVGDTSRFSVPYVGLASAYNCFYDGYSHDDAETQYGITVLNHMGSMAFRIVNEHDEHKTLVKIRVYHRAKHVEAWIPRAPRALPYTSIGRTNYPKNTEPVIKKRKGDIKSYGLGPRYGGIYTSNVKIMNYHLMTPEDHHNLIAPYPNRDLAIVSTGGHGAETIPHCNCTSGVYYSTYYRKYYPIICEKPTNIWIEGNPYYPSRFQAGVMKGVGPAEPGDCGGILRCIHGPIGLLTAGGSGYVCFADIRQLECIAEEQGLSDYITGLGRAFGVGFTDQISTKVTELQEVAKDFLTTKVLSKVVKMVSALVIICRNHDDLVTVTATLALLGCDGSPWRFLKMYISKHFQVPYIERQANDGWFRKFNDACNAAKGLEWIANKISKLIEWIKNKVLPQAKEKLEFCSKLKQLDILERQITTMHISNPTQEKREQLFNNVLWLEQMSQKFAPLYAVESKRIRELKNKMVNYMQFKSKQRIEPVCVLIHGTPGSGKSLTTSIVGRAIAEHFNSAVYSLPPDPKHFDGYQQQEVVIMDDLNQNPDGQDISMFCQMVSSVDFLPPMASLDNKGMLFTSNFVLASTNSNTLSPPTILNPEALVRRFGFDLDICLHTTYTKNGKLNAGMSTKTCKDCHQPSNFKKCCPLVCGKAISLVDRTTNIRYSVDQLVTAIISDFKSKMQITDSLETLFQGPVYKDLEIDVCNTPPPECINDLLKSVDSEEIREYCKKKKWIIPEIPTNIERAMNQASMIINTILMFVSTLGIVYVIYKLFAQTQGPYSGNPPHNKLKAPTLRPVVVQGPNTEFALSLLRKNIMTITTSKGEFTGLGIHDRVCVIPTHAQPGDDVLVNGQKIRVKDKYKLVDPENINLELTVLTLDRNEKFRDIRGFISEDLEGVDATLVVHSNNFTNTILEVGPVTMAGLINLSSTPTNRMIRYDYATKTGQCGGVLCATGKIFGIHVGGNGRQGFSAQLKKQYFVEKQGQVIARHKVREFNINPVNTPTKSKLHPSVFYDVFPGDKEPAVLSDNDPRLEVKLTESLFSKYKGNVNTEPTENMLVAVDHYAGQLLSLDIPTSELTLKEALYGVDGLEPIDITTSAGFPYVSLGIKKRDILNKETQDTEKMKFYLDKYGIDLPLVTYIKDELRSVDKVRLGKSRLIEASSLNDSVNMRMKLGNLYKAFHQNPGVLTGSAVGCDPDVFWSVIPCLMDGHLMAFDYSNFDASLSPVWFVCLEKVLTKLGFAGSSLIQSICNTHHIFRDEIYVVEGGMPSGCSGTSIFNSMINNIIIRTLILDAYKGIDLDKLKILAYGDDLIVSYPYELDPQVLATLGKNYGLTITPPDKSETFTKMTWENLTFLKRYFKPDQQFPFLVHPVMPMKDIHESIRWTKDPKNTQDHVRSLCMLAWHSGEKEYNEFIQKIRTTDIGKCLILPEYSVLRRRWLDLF

Structure (SMILES) | inhibition
Cc1nc2c([nH]1)C(=O)C(Cl)=C(Nc1cc(F)cc(F)c1)C2=O | Active

target: Genome polyprotein (rhinovirus B14) (UniProt P03303); assay: Inhibition of human rhinovirus protease 3C catalytic activity assessed as suppression of target protein cleavage at 5 uM after 30 mins by SDS-PAGE analysis; conditions: Human rhinovirus sp.

Structure (SMILES) | inhibition
COc1ccc(OC2=C(Cl)C(=O)c3ccccc3C2=O)c([N+](=O)[O-])c1 | Active

target: Genome polyprotein (Coxsackievirus B3 (strain Nancy)) (UniProt P03313); assay: Inhibition of human coxsackievirus B3 protease 3C expressed in Escherichia coli (BL21) at 40 uM using fluorogenic-Dabcyl-KEALFQGPPQFE-Edans as substrate after 1 hr by FRET assay; conditions: not given
Sequence (P03313 whole entry): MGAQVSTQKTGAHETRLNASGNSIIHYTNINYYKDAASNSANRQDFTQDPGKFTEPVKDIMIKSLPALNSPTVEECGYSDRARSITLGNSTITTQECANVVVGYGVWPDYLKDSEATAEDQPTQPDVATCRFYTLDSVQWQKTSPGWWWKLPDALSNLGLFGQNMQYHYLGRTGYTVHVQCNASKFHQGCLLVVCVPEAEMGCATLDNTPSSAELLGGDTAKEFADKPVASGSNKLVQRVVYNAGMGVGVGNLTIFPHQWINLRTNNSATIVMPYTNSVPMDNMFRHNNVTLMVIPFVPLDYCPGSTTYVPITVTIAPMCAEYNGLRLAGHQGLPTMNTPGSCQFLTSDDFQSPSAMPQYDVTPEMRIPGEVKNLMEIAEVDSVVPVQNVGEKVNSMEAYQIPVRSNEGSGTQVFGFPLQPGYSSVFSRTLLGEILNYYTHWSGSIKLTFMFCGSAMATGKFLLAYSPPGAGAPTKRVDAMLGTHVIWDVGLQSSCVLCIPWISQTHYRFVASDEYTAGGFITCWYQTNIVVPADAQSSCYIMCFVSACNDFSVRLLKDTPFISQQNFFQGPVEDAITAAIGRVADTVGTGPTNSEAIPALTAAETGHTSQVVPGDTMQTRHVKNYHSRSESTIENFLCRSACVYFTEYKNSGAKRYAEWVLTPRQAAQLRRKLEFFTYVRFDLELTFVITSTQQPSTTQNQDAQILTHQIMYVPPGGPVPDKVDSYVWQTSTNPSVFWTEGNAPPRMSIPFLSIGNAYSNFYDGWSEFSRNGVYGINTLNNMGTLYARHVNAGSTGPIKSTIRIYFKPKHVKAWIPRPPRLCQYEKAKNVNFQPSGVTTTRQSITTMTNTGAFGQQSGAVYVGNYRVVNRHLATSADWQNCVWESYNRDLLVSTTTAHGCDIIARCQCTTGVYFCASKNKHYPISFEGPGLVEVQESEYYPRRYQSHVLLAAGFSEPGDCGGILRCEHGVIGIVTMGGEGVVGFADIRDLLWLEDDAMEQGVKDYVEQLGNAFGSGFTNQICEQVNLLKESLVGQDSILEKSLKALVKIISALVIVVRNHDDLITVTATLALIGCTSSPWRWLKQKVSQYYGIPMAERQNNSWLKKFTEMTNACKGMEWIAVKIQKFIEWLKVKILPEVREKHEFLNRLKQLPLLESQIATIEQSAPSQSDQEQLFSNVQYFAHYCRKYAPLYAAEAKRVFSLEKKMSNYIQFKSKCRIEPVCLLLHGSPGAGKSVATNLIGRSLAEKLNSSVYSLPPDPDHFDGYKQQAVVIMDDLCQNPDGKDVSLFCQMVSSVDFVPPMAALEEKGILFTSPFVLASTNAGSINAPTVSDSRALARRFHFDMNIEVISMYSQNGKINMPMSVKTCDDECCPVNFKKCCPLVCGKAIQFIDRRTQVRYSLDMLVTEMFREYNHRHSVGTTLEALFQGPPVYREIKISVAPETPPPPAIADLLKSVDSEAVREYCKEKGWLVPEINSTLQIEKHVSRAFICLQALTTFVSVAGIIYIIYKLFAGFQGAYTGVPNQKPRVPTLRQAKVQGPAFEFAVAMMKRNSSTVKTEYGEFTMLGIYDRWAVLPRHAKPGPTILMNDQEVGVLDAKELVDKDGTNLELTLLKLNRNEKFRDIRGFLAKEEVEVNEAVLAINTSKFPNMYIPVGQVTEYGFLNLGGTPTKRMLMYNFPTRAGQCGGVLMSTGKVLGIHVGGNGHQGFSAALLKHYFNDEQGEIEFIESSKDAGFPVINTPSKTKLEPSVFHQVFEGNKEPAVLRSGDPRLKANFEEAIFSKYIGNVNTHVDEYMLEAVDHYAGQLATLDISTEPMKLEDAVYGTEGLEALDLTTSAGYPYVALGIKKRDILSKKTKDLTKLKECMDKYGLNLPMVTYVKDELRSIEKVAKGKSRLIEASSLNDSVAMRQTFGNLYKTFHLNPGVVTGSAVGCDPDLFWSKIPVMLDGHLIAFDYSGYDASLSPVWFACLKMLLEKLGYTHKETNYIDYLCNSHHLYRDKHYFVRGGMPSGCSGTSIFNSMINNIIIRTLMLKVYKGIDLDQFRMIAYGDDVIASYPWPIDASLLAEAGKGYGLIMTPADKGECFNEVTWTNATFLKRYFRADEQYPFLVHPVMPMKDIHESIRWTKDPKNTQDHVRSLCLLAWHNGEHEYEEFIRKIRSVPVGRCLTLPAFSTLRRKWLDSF

Structure (SMILES) | inhibition [%]
COC(=O)/C=C/C(=O)[C@@H](NC(=O)OC(C)(C)C)C(C)C | > 64
O=C(CCN1CCc2ccccc2CC1)c1ccc2c(c1)OCCO2 | > 64
Cc1ccc(N/N=C/c2c(O)cc(C)oc2=O)cc1 | > 64
CC1(C)CC(=O)C2=C(C1)OC(=O)C2(Nc1ccccc1)C(F)(F)F (centres undefined) | > 64
COc1ccc(OC2=C(Cl)C(=O)c3ccccc3C2=O)c([N+](=O)[O-])c1 | > 64
O=C1C=CC(=O)N1c1ccc(OC(F)(F)C(F)F)c(N2C(=O)C=CC2=O)c1 | > 64
CN(Cc1ccccc1)CC(C(=O)c1ccc(Cl)cc1)n1cnc2ccccc2c1=O (centres undefined) | > 64
Cc1nc2c([nH]1)C(=O)C(Cl)=C(Nc1cc(F)cc(F)c1)C2=O | > 64
